Experimental data published in PMC8618034, “In Silico Structure-Guided Optimization and Molecular Simulation Studies of 3-Phenoxy-4-(3-trifluoromethylphenyl)pyridazines as Potent Phytoene Desaturase Inhibitors” (Molecules, 2021).
Where two headings read alike, the source gives them in different places.

Target: T1, Synechococcus PDS (phytoene desaturase) (Synechococcus elongatus, UniProt P26294)
T1 construct: recombinant, pET15b-Synechococcus PDS
Test: SPR (Biacore 8K, protein immobilized on CM5 chip)
Type: binding

T1 sequence (P26294 whole entry): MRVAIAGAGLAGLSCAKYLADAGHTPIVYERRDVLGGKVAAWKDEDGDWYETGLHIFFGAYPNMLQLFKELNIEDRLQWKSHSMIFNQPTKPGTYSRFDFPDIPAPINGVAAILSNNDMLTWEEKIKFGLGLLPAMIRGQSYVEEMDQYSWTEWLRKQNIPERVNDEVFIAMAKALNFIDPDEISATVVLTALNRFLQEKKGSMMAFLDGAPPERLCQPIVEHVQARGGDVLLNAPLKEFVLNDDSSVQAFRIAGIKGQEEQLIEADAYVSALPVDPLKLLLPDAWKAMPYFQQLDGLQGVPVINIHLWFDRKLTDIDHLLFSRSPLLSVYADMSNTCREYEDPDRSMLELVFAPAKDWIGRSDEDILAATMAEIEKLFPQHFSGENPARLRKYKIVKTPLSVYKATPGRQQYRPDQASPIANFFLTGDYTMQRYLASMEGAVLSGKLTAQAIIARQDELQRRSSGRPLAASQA

SMILES	Kd [µM]	Kd (read-out: Kd) [µM]
O=C(Nc1ccc(F)cc1F)c1cccnc1Oc1cccc(C(F)(F)F)c1 [diflufenican]	70.8	
Cc1cc(-c2cccc(C(F)(F)F)c2)c(Oc2ccc(C(F)(F)F)cc2)nn1 [2a, 6-methyl-3-(4-(trifluoromethyl)phenoxy)-4-(3(trifluoromethyl)phenyl)pyridazine]		7.08
Cc1cc(-c2cccc(C(F)(F)F)c2)c(Oc2ccc(C#N)cc2)nn1 [compound 1]		43.5
CCc1cc(-c2cccc(C(F)(F)F)c2)c(Oc2cc(F)c(F)c(F)c2)nn1 [3h, 6-ethyl-4-(3-(trifluoromethyl)phenyl)-3-(3,4,5-trifluorophenoxy)pyridazine]		63.2
